Data: the NIST ThermoML archive (doi:10.1021/acs.jced.9b00375)
± gives the expanded uncertainty stated by the source.

How the values were obtained:
[1] = 298.15 K; 101.3 kPa; Liquid; Vibrating tube method
[2] = wn = mass fraction of the nth substance listed; conditions: 298.15 K, 101.3 kPa, Liquid, Vibrating tube method

NCCO.O=CO [2-hydroxyethylammonium formate]
mass density [1]: 1215 ± 16 kg/m3

NCCO.O=CO [2-hydroxyethylammonium formate] + CCCCC
mass density ([2]; w2 = 0.9491): 625.1 ± 16 kg/m3

NCCO.O=CO [2-hydroxyethylammonium formate] + CCCCCC
mass density ([2]; w2 = 0.0028): 1182.7 ± 16 kg/m3 | mass density ([2]; w2 = 0.0063): 1194.1 ± 16 kg/m3 | mass density ([2]; w2 = 0.997): 655.6 ± 16 kg/m3 | mass density ([2]; w2 = 0.9982): 663.6 ± 16 kg/m3

NCCO.O=CO [2-hydroxyethylammonium formate] + CCCCCCC
mass density ([2]; w2 = 0.0045): 1183 ± 16 kg/m3 | mass density ([2]; w2 = 0.9989): 680 ± 16 kg/m3

NCCO.O=CO [2-hydroxyethylammonium formate] + CCCCCCCC
mass density ([2]; w2 = 0.0035): 1192.6 ± 16 kg/m3 | mass density ([2]; w2 = 0.9955): 699.5 ± 16 kg/m3 | mass density ([2]; w2 = 0.9971): 699.7 ± 16 kg/m3

CCO [ethanol]
mass density [1]: 785.7 ± 16 kg/m3

CCCCCCC [heptane]
mass density [1]: 679 ± 16 kg/m3

CCCCCC [hexane]
mass density [1]: 668 ± 16 kg/m3

CO [methanol]
mass density [1]: 786.7 ± 16 kg/m3

CCCCCCCC [octane]
mass density [1]: 698.7 ± 16 kg/m3

CCCCC [pentane]
mass density [1]: 621.3 ± 16 kg/m3
